Series [1] relates to Mus musculus. The series can be described thus: Anxiolytic activity in albino Mus musculus (mouse) assessed as decrease in rearing behaviour at 50 mg/kg, ip administered 30 min prior to testing by open-field test relative to control. It is filed as functional, organism-based. Details: dose 50 mg/kg.
Series [2] relates to Mus musculus. Description: Stimulation of central nervous system in albino Mus musculus (mouse) assessed as increase in rearing behaviour at 100 mg/kg, ip administered 30 min prior to testing by open-feild test relative to control. Format: ADME, organism-based. Details: dose 100 mg/kg, route intraperitoneal. The note with it: in vivo, 0.5 h.
The test system of series [3] is Mus musculus. Description: Anxiolytic activity in albino Mus musculus (mouse) assessed as increase in time spent on open arm at 100 mg/kg, ip administered 30 min prior to testing by elevated-plus maze test relative to control. The arrangement: dose 100 mg/kg. Format: functional, organism-based.
Series [4] concerns Mus musculus. The series can be described thus: Antidepressant activity in albino Mus musculus (mouse) assessed as reduction in immobility time at 50 mg/kg, ip administered 30 min prior to testing by forced-swim test relative to control. Format: functional, organism-based. The arrangement: dose 50 mg/kg.
The test system of series [5] is Mus musculus. Description: Anxiolytic activity in albino Mus musculus (mouse) assessed as increase in number of open arm enteries at 100 mg/kg, ip administered 30 min prior to testing by elevated-plus maze test relative to control. Format: functional, organism-based. The arrangement: dose 100 mg/kg.
The test system of series [6] is Mus musculus. Description: Stimulation of central nervous system in albino Mus musculus (mouse) assessed as increase in number of lines crossed at 100 mg/kg, ip administered 30 min prior to testing by open-feild test relative to control. It is filed as ADME, organism-based. The arrangement: dose 100 mg/kg, route intraperitoneal. The following applies: in vivo, 0.5 h.

The subject of series [7] is Mus musculus. Description: Anxiolytic activity in albino Mus musculus (mouse) assessed as increase in number of open arm enteries at 50 mg/kg, ip administered 30 min prior to testing by elevated-plus maze test relative to control. Format: functional, organism-based. The arrangement: dose 50 mg/kg.
Series [8] has as its system Mus musculus. Description: Anxiolytic activity in albino Mus musculus (mouse) assessed as increase in time spent on open arm at 50 mg/kg, ip administered 30 min prior to testing by elevated-plus maze test relative to control. Format: functional, organism-based. The arrangement: dose 50 mg/kg.
In series [9] the test system is Mus musculus. The series can be described thus: Antidepressant activity in albino Mus musculus (mouse) assessed as reduction in immobility time at 15 mg/kg, ip administered 30 min prior to testing by forced-swim test relative to control. Details: dose 15 mg/kg. It is filed as functional, organism-based.
Series [10] has as its system Mus musculus. Description: Stimulation of central nervous system in albino Mus musculus (mouse) assessed as increase in number of lines crossed at 50 mg/kg, ip administered 30 min prior to testing by open-feild test relative to control. It is filed as ADME, organism-based. The arrangement: dose 50 mg/kg, route intraperitoneal. The note with it: in vivo, 0.5 h.
Series [11] deals with Mus musculus. Description: Stimulation of central nervous system in albino Mus musculus (mouse) assessed as increase in rearing behaviour at 50 mg/kg, ip administered 30 min prior to testing by open-feild test relative to control. The note with it: in vivo, 0.5 h. Details: dose 50 mg/kg, route intraperitoneal. Format: ADME, organism-based.
Series [12] deals with Mus musculus. Description: Antidepressant activity in albino Mus musculus (mouse) assessed as reduction in immobility time at 100 mg/kg, ip administered 30 min prior to testing by forced-swim test relative to control. Details: dose 100 mg/kg. It is filed as functional, organism-based.
For series [13], the system named is Mus musculus. Description: Anxiolytic activity in albino Mus musculus (mouse) assessed as decrease in rearing behaviour at 100 mg/kg, ip administered 30 min prior to testing by open-field test relative to control. Format: functional, organism-based. Details: dose 100 mg/kg.

The source made the active and inactive calls. The calls are words filed in the database; no cut-off is given here.

As for `CC(O)c1cc2c(o1)C(=O)c1ccccc1C2=O` (stereo unspecified), the result with Mus musculus [1], in the series on Mus musculus [3], in the series with Mus musculus [4] and with Mus musculus [5] was Active. Besides, the Activity entry in the series with Mus musculus [2] and in the series with Mus musculus [6] was “Toxic” each time.

Take `CC1(C)C=CC2=C(O1)C(=O)c1ccccc1C2=O`: the outcome with Mus musculus [7], in the series with Mus musculus [3], with Mus musculus [5] and with Mus musculus [8] was inactive.

For the compound `CN(C)CCCN1c2ccccc2CCc2ccccc21`, the outcome in the series on Mus musculus [9] was Active.

As to `CC[C@H](CC[C@@H](C)[C@H]1CC[C@H]2[C@@H]3CC=C4C[C@@H](O)CC[C@]4(C)[C@H]3CC[C@]12C)C(C)C` [BETA-SITOSTEROL], the Activity entry with Mus musculus [10] and in the series with Mus musculus [11] was “Toxic” throughout. Also, the outcome in the series on Mus musculus [7] and in the series with Mus musculus [5] was Active. Further, the outcome in the series on Mus musculus [3], in the series with Mus musculus [4], in the series on Mus musculus [12] and in the series with Mus musculus [8] was inactive.

Consider `CC(C)=CCC1=C(O)C(=O)c2ccccc2C1=O` [LAPACHOL], for which the outcome with Mus musculus [7], in the series with Mus musculus [4] and in the series on Mus musculus [5] was Active. The Activity result in the series on Mus musculus [2] and with Mus musculus [6] was “Toxic” each time. In addition, the result in the series with Mus musculus [3] and in the series with Mus musculus [8] was inactive.

For the compound `CC(=O)c1cc2c(o1)C(=O)c1ccccc1C2=O` [NAPABUCASIN], the Activity result with Mus musculus [10] is recorded as “Toxic”. For the same compound, the outcome with Mus musculus [13], with Mus musculus [1], with Mus musculus [4] and with Mus musculus [12] was Active.

The values are drawn from ChEMBL document CHEMBL3044573, “Neurological activities of lapachol and its furano derivatives from Kigelia africana” (Med Chem Res, 2013).
